# According to PubChem BioAssay AID1035470 (Broad Institute, 2014):
# Records with an inconclusive call do not appear. The source made the active and inactive calls.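 Rule for the calls: active = compound lowering the normal-ribosome reporter at least twice as much as the humanized-ribosome reporter, growth loss under a set limit; inconclusive = no clear call, values can overlap the other calls; inactive = the rest.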
# Tested on: E. coli WT-GFP vs G2058-humanized RFP, fluorescence, 24 h
# Assay: E. coli strain growth, wild-type against G2058 humanized RFP mutant – G2058 mutant RFP vs wild-type GFP, cherry-pick, two tests, dose response (AID 1035470)
# [1] = E. coli WT-GFP vs G2058-humanized RFP mixed culture, total growth OD600, 24 h
# [2] = measured here: G2058 humanized mutant RFP growth
# [3] = E. coli WT-GFP vs G2058-humanized RFP mixed culture, OD600 growth, 24 h, test 1
# [4] = measured here: mutant RFP, test 1
# [5] = measured here: wild-type GFP, test 1
SMILES,AC50 [1] [µM],AC50,other results
Cc1ccccc1S(=O)(=O)c1cc2ccccc2nc1N,> 100,–,–
Cc1cc2c(sc3ccccc32)c(C)n1,> 100,> 100 µM (inactive),AC50 [2]: 48.8 µM
Cc1nn2c(NCc3ccccn3)cc(C(C)C)nc2c1-c1ccccc1,> 100,–,–
Cc1ccc(NC(=O)c2ccc([N+](=O)[O-])s2)cc1S(=O)(=O)N1CCOCC1,> 100,> 100 µM (inactive),–
CCN(CC)C(=O)c1sc2nc(-c3ccccc3)ccc2c1N,–,> 100 µM (inactive),AC50 [2]: > 100 µM
COCC(C)NC(=O)c1nn(Cc2ccccc2)c(=O)c2ccccc12 (configuration not stated),> 100,–,–
CCOC(=O)c1cc(C)nc(N2CCCCC2)c1C#N,> 100,> 100 µM (inactive),–
O=C(CN(c1ccc(F)cc1)S(=O)(=O)c1ccccc1)Nc1ccccc1C(=O)O,> 100,–,–
c1ccc(CSCc2ccccc2)cc1,–,–,AC50 [2]: > 100 µM
COc1cc(OC)cc(C(=O)Nc2ccc(S(=O)(=O)Nc3cnc4ccccc4n3)cc2)c1,–,> 100 µM (inactive),–
Cc1cc(C)c(S(=O)(=O)NCCOc2ccccc2)c(C)c1-n1cnnn1,–,> 100 µM (inactive),–
O=C(CC1C(=O)N(c2ccc(Cl)cc2)C(=S)N1CCc1ccncc1)Nc1ccc(F)cc1 (configuration not stated),41.8,> 100 µM (inactive),–
Brc1ccccc1Cn1c(-c2cncs2)nc2ccccc21,> 100,> 100 µM (inactive),AC50 [2]: > 100 µM
N#Cc1c(N)nc(SCc2ccccc2)c(C#N)c1-c1ccco1,–,> 100 µM (inactive),–
CCOC(=O)c1cccc(OS(=O)(=O)Cc2ccccc2)c1,> 100,–,–
Cn1cc(CN2CCCC(C(=O)Nc3cccc(-c4cc5ccccc5[nH]4)c3)C2)cn1 (configuration not stated),–,> 100 µM (inactive),–
CC1CCN(c2ccc3nnc(CCC(=O)Nc4cccc(F)c4)n3n2)CC1,> 100,> 100 µM (inactive),–
O=C(Nc1ccc2c(c1)OCO2)c1ccc([N+](=O)[O-])cc1[N+](=O)[O-],–,> 100 µM (inactive),–
COc1ccc(-c2noc(CCc3ccccc3)n2)cc1,–,> 100 µM (inactive),–
COc1ccc(-c2csc(NC(=O)c3ccoc3C)n2)cc1,> 100,–,–
COc1cccc(C(=O)C2CCCN(C/C=C/c3ccccc3OC)C2)c1 (configuration not stated),–,> 100 µM (inactive),AC50 [2]: > 100 µM
Cc1ccc(NC(=O)c2ccc([N+](=O)[O-])o2)c(C)c1,–,> 100 µM (inactive),–

SMILES,AC50 [1] [µM],AC50,other results
COc1ccc(C(=O)C[n+]2ccc3c(c2)nc(-c2cc(OC)c(OC)cc2OC)n3C)cc1,> 100,–,–
Cc1ccc(-c2c[n+](CC(=O)Nc3ccccc3)c3n2CCC3)cc1,–,–,AC50 [2]: > 100 µM
O=S1(=O)N[C@H](Cc2ccccc2)COc2cc(N3CCSCC3)ccc21,> 100,–,–
Cc1nn(-c2cccc(Cl)c2)nc1C(=O)O,> 100,> 100 µM (inactive),–
COc1cc(C2CC(=O)Oc3cc(C)cc(C)c32)cc(OC)c1OC (configuration not stated),–,> 100 µM (inactive),–
COc1ccc(-c2noc(=O)n2Cc2ccccc2Cl)cc1,> 100,–,–
COc1ccc(NC(=O)Nc2cccc3c2O[C@H](CN(C)S(=O)(=O)c2ccc(Cl)cc2)[C@@H](C)CN([C@H](C)CO)C3=O)cc1,–,> 100 µM (inactive),–
COCCn1c(SCC(=O)Nc2ccccc2OC)nc2ccccc21,–,> 100 µM (inactive),–
C=CCSc1cc(C)nc2c(-c3ccccc3)c(C)nn12,–,> 100 µM (inactive),–
COc1ccc(Nc2oc(-c3ccco3)nc2S(=O)(=O)c2ccc(F)cc2)cc1,–,8.11 µM,AC50 [3]: 29 µM; AC50 [4]: 37.6 µM; AC50 [5]: 4.64 µM
CC(C)Oc1ccc(C(CC(=O)O)NC(=O)C(Sc2ccccc2)c2ccccc2)cc1 (configuration not stated),–,> 100 µM (inactive),–
CCn1ccnc1CN1CCCC(C(=O)c2ccc3cc(OC)ccc3c2)C1 (configuration not stated),> 100,> 100 µM (inactive),–
CC(C)Nc1nnc(SCC(=O)Nc2sccc2C#N)s1,–,> 100 µM (inactive),–
Cc1ccc(Nc2cc(C(=O)NCCCN3CCOCC3)c3ccccc3n2)cc1C,> 100,> 100 µM (inactive),–
COc1ccc(CNC(=O)c2nc(S(=O)(=O)Cc3ccccc3)ncc2Cl)cc1,–,> 100 µM (inactive),–
NC(=O)CSc1nc2cc([N+](=O)[O-])ccc2n1-c1cccc(C(F)(F)F)c1,> 100,> 100 µM (inactive),–
COc1ccc(NC(=O)CSc2n[nH]c(-c3ccncc3)n2)c([N+](=O)[O-])c1,> 100,–,–
Cc1cccc(OCCC(=O)Nc2ccc(F)c(F)c2)c1,–,> 100 µM (inactive),–
COC(=O)c1c(NC(=O)CCC(=O)O)sc(Cc2ccccc2)c1C,35.7,28.4 µM,AC50 [3]: 27 µM; AC50 [2]: 5.11 µM; AC50 [4]: 11.9 µM; AC50 [5]: 1.53 µM
O=C(C1Cc2ccccc2CN1C(=O)c1ccccc1)N1CCN(c2ccccc2)CC1 (configuration not stated),> 100,> 100 µM (inactive),AC50 [2]: > 100 µM
Cc1onc(-c2ccccc2Cl)c1C(=O)Nc1ccc(Cl)cn1,> 100,–,–
Cc1cccc(C(=O)NCC(=O)NCCSc2ccc(Br)cc2)c1,–,> 100 µM (inactive),AC50 [2]: 7.48 µM

SMILES,AC50 [1] [µM],AC50,other results
CC(C)(C)c1ccc(-c2noc(CCC(=O)NCc3ccco3)n2)cc1,> 100,> 100 µM (inactive),AC50 [2]: > 100 µM
CCc1nnc(NS(=O)(=O)c2ccc(NC(=O)c3cccc(Cl)c3)cc2)s1,> 100,> 100 µM (inactive),AC50 [2]: > 100 µM
COC(=O)c1ccc2nc(-c3ccco3)c(Cc3ccc(C)cc3)n2c1,> 100,–,–
Cc1ccc(Cn2cnc3ccccc32)cc1,–,> 100 µM (inactive),–
Cc1ccc(S(=O)(=O)N2CC(=O)Nc3ccccc32)cc1C,> 100,> 100 µM (inactive),–
Cc1cccc(SCC(=O)Nc2ccccc2[N+](=O)[O-])c1,> 100,> 100 µM (inactive),–
Cc1cc(-c2ccc(C)c(S(=O)(=O)NCC3CCN(Cc4ccccc4F)CC3)c2)on1,> 100,> 100 µM (inactive),–
COc1ccc(-c2cn3c(C)c(C(=O)Nc4cccc(C)n4)sc3n2)cc1,> 100,> 100 µM (inactive),–
CCCC(=O)Nc1sc2c(c1C(=O)Nc1ccccn1)CCCC2,> 100,> 100 µM (inactive),–
C[C@H]1CN([C@@H](C)CO)C(=O)CCCn2nncc2CO[C@@H]1CN(C)Cc1ccccc1C(F)(F)F,> 100,–,AC50 [2]: 6.94 µM
O=C(C[C@H]1CC[C@H](NC(=O)Nc2ccccc2F)[C@H](CO)O1)NCc1ccc(-c2ccccc2)cc1,> 100,> 100 µM (inactive),–
CCN(CC)c1nc(Oc2ccc(C(=O)OC)cc2)nc(N2CCOCC2)n1,–,> 100 µM (inactive),–
CC(=O)OC(COc1cccc(C)c1)Cn1cnc2ccccc21 (configuration not stated),> 100,> 100 µM (inactive),–
Cn1nc(C(=O)Nc2cccc(S(=O)(=O)N3CCCCC3)c2)c2ccccc2c1=O,> 100,> 100 µM (inactive),–
NC(=O)c1cc(NC(=O)c2cc(Br)c(Br)s2)cc(C(N)=O)c1,–,> 100 µM (inactive),–
CC1CCCN(c2ccc(C(=O)NCCc3ccccc3)cn2)C1 (configuration not stated),–,> 100 µM (inactive),–
O=C(Nc1ccc2nc(-c3ccccc3)[nH]c2c1)c1cccs1,51.4,> 100 µM (inactive),–
COc1ccc(OC)c(C(=O)COC(=O)c2ccc([N+](=O)[O-])o2)c1,> 100,> 100 µM (inactive),–
COc1ccc(NC(=O)Nc2cccc3c2O[C@@H](CN(C)S(=O)(=O)c2ccc(Cl)cc2)[C@@H](C)CN([C@@H](C)CO)C3=O)cc1,–,> 100 µM (inactive),–
COc1ccc(CN2C(=O)CC(Cc3cc(C)cc(C)c3)C2=O)cc1OC (configuration not stated),> 100,–,–
O=C(CCCn1c(=S)[nH]c2ccsc2c1=O)Nc1ccc2c(c1)OCCO2,–,> 100 µM (inactive),–
COc1ccc(-c2nc(NC(C)=O)sc2-c2ccccc2)cc1,–,> 100 µM (inactive),–

SMILES,AC50 [1] [µM],AC50,other results
CCn1c(-c2ccccc2Cl)nn(CC(=O)Nc2ccccc2OC)c1=S,–,> 100 µM (inactive),–
Cc1noc(C)c1COc1cccc(C(=O)N2CCc3ccccc32)c1,–,> 100 µM (inactive),–
CCC(=O)Nc1nc2ccc(NC(=O)c3cc(OC)c(OC)c(OC)c3)cc2s1,–,> 100 µM (inactive),–
Cc1ccc(SCC(=O)Nc2ccc(S(=O)(=O)Nc3nccs3)cc2)cc1,> 100,> 100 µM (inactive),–
O=C1c2ccccc2CSc2c(O)cccc21,–,> 100 µM (inactive),–
O=C(c1ccc(Cl)cc1)C1CCCN(Cc2cccc3cnccc23)C1 (configuration not stated),–,–,AC50 [2]: > 100 µM
O=C(CCNC(=O)c1ccco1)Nc1cccc(Br)c1,> 100,–,–
COc1cc2c(c(OC)c1OC)C(c1ccc3c(c1)OCO3)CC(=O)O2 (configuration not stated),> 100,> 100 µM (inactive),–
Nc1ccccc1Sc1c[nH]c2ccccc12,> 100,> 100 µM (inactive),–
C=CCn1c(SCc2n[nH]c(=S)n2-c2ccccc2)nnc1-c1ccccc1,> 100,> 100 µM (inactive),–
COc1cccc(NC(=O)CSc2nc3c(sc4ccccc43)c(=O)n2CCN(C)C)c1,–,> 100 µM (inactive),–
CC(=O)N1CCOc2ccc(S(=O)(=O)N(C)c3ccc(C)cc3)cc21,–,> 100 µM (inactive),–
CN(C)CCCNc1ccc(-c2cc(Nc3cccc(Cl)c3)ncn2)cn1,–,> 100 µM (inactive),–
COc1cc(NC(=O)COC(=O)CC(C)(C)C)c(C)cc1[N+](=O)[O-],> 100,> 100 µM (inactive),–
CCCc1nc2oc3c(NCCCN(C)C)ncnc3c2c2c1CCCC2,> 100,> 100 µM (inactive),–
COc1ccc(OC)c(-c2csc(NC(=O)C3COc4ccccc4O3)n2)c1 (configuration not stated),> 100,> 100 µM (inactive),–
Cc1cccc(Nc2nc(-c3ccc(F)cc3)cs2)n1,> 100,> 100 µM (inactive),–
C(=C/c1nccc2c1[nH]c1ccccc12)/c1ccc2c(c1)OCO2,–,–,AC50 [2]: > 100 µM
COc1ccc(N(CCC(=O)O)S(=O)(=O)c2ccc(C)cc2C)cc1,> 100,> 100 µM (inactive),–
Nc1ccccc1Sc1ccc(C(F)(F)F)cc1[N+](=O)[O-],> 100,> 100 µM (inactive),AC50 [2]: > 100 µM
